Measurements as given in the NIST ThermoML archive (doi:10.1021/je100715x).
± gives the expanded uncertainty stated by the source.

Key:
[1] = xn = mol fraction of the nth substance listed; conditions: 101 kPa, Liquid; for viscosity: Capillary tube (Ostwald / Ubbelohde) method; for mass density: Vibrating tube method
[2] = refractive index (Na D-line) (dimensionless); xn = mol fraction of the nth substance listed; conditions: 101 kPa, Liquid, Standard Abbe refractometry

CCOC(=O)C(=O)OCC [diethyl ethanedioate] + O=C1CCCC1
Conditions | mass density, 303.15 K [kg/m3] | mass density, 308.15 K [kg/m3] | mass density, 313.15 K [kg/m3] | refractive index, 303.15 K | refractive index, 308.15 K | refractive index, 313.15 K | viscosity, 303.15 K [mPa·s] | viscosity, 308.15 K [mPa·s] | viscosity, 313.15 K [mPa·s]
[1], x1 = 0.0679 | 950.9 ± 0.4 | 946.1 ± 0.4 | 941.1 ± 0.4 | – | – | – | 1.045 ± 0.014 | 0.96 ± 0.012 | 0.891 ± 0.012
[1], x1 = 0.1501 | 965 ± 0.4 | 960.1 ± 0.4 | 954.9 ± 0.4 | – | – | – | 1.095 ± 0.014 | 0.999 ± 0.013 | 0.925 ± 0.012
[1], x1 = 0.2518 | 981 ± 0.3 | 976 ± 0.4 | 970.6 ± 0.4 | – | – | – | 1.153 ± 0.015 | 1.048 ± 0.014 | 0.968 ± 0.013
[1], x1 = 0.3903 | 1000.6 ± 0.4 | 995.4 ± 0.4 | 989.9 ± 0.4 | – | – | – | 1.233 ± 0.016 | 1.119 ± 0.015 | 1.031 ± 0.013
[1], x1 = 0.4511 | 1008.5 ± 0.4 | 1003.2 ± 0.4 | 997.7 ± 0.4 | – | – | – | 1.265 ± 0.016 | 1.152 ± 0.015 | 1.058 ± 0.014
[1], x1 = 0.5509 | 1020.7 ± 0.4 | 1015.3 ± 0.4 | 1009.7 ± 0.4 | – | – | – | 1.326 ± 0.017 | 1.207 ± 0.016 | 1.107 ± 0.014
[1], x1 = 0.6587 | 1032.9 ± 0.4 | 1027.4 ± 0.4 | 1021.7 ± 0.4 | – | – | – | 1.394 ± 0.018 | 1.269 ± 0.016 | 1.163 ± 0.015
[1], x1 = 0.7587 | 1043.4 ± 0.4 | 1037.9 ± 0.4 | 1032.1 ± 0.4 | – | – | – | 1.458 ± 0.019 | 1.329 ± 0.017 | 1.219 ± 0.016
[1], x1 = 0.8755 | 1054.9 ± 0.4 | 1049.3 ± 0.4 | 1043.3 ± 0.4 | – | – | – | 1.537 ± 0.02 | 1.401 ± 0.018 | 1.288 ± 0.017
[1], x1 = 0.961 | 1062.7 ± 0.4 | 1057 ± 0.4 | 1051 ± 0.4 | – | – | – | 1.596 ± 0.021 | 1.454 ± 0.019 | 1.342 ± 0.017
[2], x1 = 0.0679 | – | – | – | 1.4299 ± 0.0004 | 1.4278 ± 0.0004 | 1.4262 ± 0.0004 | – | – | –
[2], x1 = 0.1501 | – | – | – | 1.4264 ± 0.0004 | 1.4244 ± 0.0004 | 1.4231 ± 0.0004 | – | – | –
[2], x1 = 0.2518 | – | – | – | 1.4226 ± 0.0004 | 1.4207 ± 0.0004 | 1.4198 ± 0.0004 | – | – | –
[2], x1 = 0.3903 | – | – | – | 1.4182 ± 0.0004 | 1.4164 ± 0.0004 | 1.4158 ± 0.0004 | – | – | –
[2], x1 = 0.4511 | – | – | – | 1.4164 ± 0.0004 | 1.4147 ± 0.0004 | 1.4142 ± 0.0004 | – | – | –
[2], x1 = 0.5509 | – | – | – | 1.4139 ± 0.0004 | 1.4122 ± 0.0004 | 1.4116 ± 0.0004 | – | – | –
[2], x1 = 0.6587 | – | – | – | 1.4115 ± 0.0004 | 1.4098 ± 0.0004 | 1.4089 ± 0.0004 | – | – | –
[2], x1 = 0.7587 | – | – | – | 1.4098 ± 0.0004 | 1.4079 ± 0.0004 | 1.4067 ± 0.0004 | – | – | –
[2], x1 = 0.8755 | – | – | – | 1.408 ± 0.0004 | 1.4059 ± 0.0004 | 1.4043 ± 0.0004 | – | – | –
[2], x1 = 0.961 | – | – | – | 1.4068 ± 0.0004 | 1.4045 ± 0.0004 | 1.4027 ± 0.0004 | – | – | –
